# Patent publication US20240369551A1 (priority 2021, published 2024)
# Several values for one entry are separate records, joined by “and”; a condition that tells them apart may be missing. Equal values may be shown once. Read-outs that look alike come from different tables or passages of the source. Ends that are not written are not given here.
# Legend:
# [1] = target: epitope-specific SARS-CoV-2 IgGs; assay: SPR spectroscopy (Biacore T200): IgG binding to immobilized biotinylated peptide epitopes; design: species or system rabbit; settings: for binding affinities (estimated Kd, order of magnitude): Example 9, kinetic fitting, streptavidin treated CM5 chip; for Kd: respective target IgG, 25° C.; for apparent Kd: kinetic analysis, very slow dissociation, beyond the instrument sensitivity limit
# [2] = system: SARS-CoV-2 IgG antibodies; assay: Immunoassay with epitope-tagged AuNPs (aggregation, relative change in absorbance at 534 nm); assay type: binding, rabbit; settings: for limit of detection (LOD): single epitope-functionalized AuNPs (streptavidin-biotin), respective SARS-CoV-2 IgG; for decrease of normalized plasmon peak intensity (534 nm): anti-SARS-CoV-2 S1 IgG; for LOD: detection of anti-SARS-CoV-2 S1 IgG; for nanosensor response: 100 nM anti-S1 IgG
# Procedure: (§1) SARS-CoV-2 IgG antibodies and control antibodies were first diluted in 1×PBS. In a typical experiment, 5 μL of prediluted antibody solution was added to 45 μL of epitope-functionalized AuNPs. The mixture was spun briefly for 20 s at 6000 rpm using a portable microcentrifuge (Profuge 6K) and incubated for another 30 min at room temperature. Absorbance spectra of the supernatant were recorded using a microplate reader (Synergy 2; BioTek). Sensor response was calculated as the relative change in absorbance at 534 nm. For a time-profile study, the absorbance spectra were recorded at 10 min intervals. For a salt-induced aggregation test, solutions of AuNPs were treated with 1×PBS and the absorbance spectra were recorded after a 30 min incubation. For a selectivity screen against other human coronaviruses, the concentration of antibodies was 100 nM. To investigate the sensitivity of AuNPs in human plasma, SARS-CoV-2 IgG rabbit antibodies were spiked into PBS containing various concentrations of human plasma, such that the final plasma concentration after mixing with AuNPs was 0%, 10%, and 20% (v/v).
# SARS-CoV-2 IgG = assay: Fluorescence polarization (FP) of FITC-labeled epitopes with IgG; assay type: binding, rabbit; settings: 100 nM FITC-labeled epitope, 200 nM IgG, 15 min, 1×PBS
# COVID19 anti-S1 IgG = assay: UV-vis aggregation test of peptide-coated nanoparticles (Examples 1, 6, 7, 8); assay type: binding; settings: for response to COVID-19 IgGs: single epitope thiol-AuNP conjugation with thiolyated spacer CALNN
# SARS-CoV IgG = assay type: binding
# MERS IgGs = assay type: binding
# HCoV-HKU1 IgGs = assay: Immunoassay with epitope-tagged AuNPs, selectivity screen; assay type: binding; settings: 100 nM antibodies
# Procedure: as §1
# normal human IgG = assay: Immunoassay with epitope-tagged AuNPs, control IgG; assay type: binding
# Procedure: as §1
# COVID19 anti-S2 IgG = assay: UV-vis aggregation test of peptide-AuNP conjugates (Example 2); assay type: binding; settings: streptavidin-biotin conjugates, peptide 10 or 1 μM
# Procedure: Citrate-coated AuNP was functionalized with streptavidin (SA) by mixing 500 nM of SA with 8 nM of citrate-coated AuNP. The mixture was incubated at room temperature for 30 min, and unbound SA was removed from the SA-coated AuNPs (SA-AuNPs) with centrifugation at 12,500 RCF for 15 mins. Then, biotinylated S20P2 or S21P2 peptide (10 or 1 μM) was added to conjugate to the SA-AuNPs. Unreacted peptides were removed from the peptide-AuNP conjugates with centrifugation at 12500 RCF for 12 mins. The conjugates were reconstituted into ultrapure water for further tests with IgG.
# For IgG test, 20 μL of COVID19 anti-S2 IgG (SINO Biological) was added to 80 μL of peptide-AuNP conjugates in a 96-well plate. UV-vis spectrum before and after IgG addition are recorded (FIGS. 3A and B). […] For both conjugates, a higher degree of aggregation is observed when lower peptide concentration (1 μM) is used, presumably due to the diluted coating density around AuNP which poses less steric hindrance for binding with IgG.
# [3] = real-time kinetic analysis, 1:1 Langmuir model, read-out: Kd from kinetic analysis
# [4] = steady-state analysis without dissociation step, read-out: Kd from steady-state analysis
substance,measurement,setting,value
GIAVEQDKNTQEVFAQVK [S20P2],"binding affinities (estimated Kd, order of magnitude)",[1],nM
same,Kd,[1]; [3],~80 nM and 80 nM
same,Kd,[1]; [4],510 ± 34 nM
same,limit of detection (LOD),[2],15.4 nM
same,relative FP increase,SARS-CoV-2 IgG,significant increase in FP values
NNAAIVLQLPQGTTLPKG [N4P5],"binding affinities (estimated Kd, order of magnitude)",[1],μM
same,Kd,[1]; [3],~218 nM and 218 nM
same,Kd,[1]; [4],1610 ± 120 nM
same,limit of detection (LOD),[2],25.8 nM
same,relative FP increase,SARS-CoV-2 IgG,comparably lower percentage of FP increase
PSKPSKRSFIEDLLFNKV [S21P2],"binding affinities (estimated Kd, order of magnitude)",[1],pM
same,apparent Kd,[1],low pM range
same,Kd,[1]; [3],< 1 nM
same,Kd,[1]; [4],125 ± 7 nM
same,limit of detection (LOD),[2],5.1 nM
same,response to COVID-19 IgGs,COVID19 anti-S1 IgG,resulted in nanoparticle aggregation
same,relative FP increase,SARS-CoV-2 IgG,significant increase in FP values
"S14P5-AuNPs: Gold nanoparticles functionalized with S14P5; streptavidin-biotin in Example 10, thiol-gold with or without CALNN spacer in Examples 1 and 6 (TESNKKFLPFQQFGRDIA; also: conjugated to gold nanoparticles via streptavidin-biotin or thiol-gold, with or without CALNN spacer)",decrease of normalized plasmon peak intensity (534 nm),[2]; first 10 min,40.2%
same,decrease of normalized plasmon peak intensity (534 nm),[2]; leveling off within 30 min,67.3%
same,LOD,[2],4.1 nM
same,limit of detection (LOD),[2],4.1 nM
same,dose-dependent aggregation response (decrease in plasmon peak intensity),SARS-CoV IgG,absent
same,normalized sensor response,SARS-CoV IgG,11.4%
same,normalized sensor response with SARS-CoV IgG relative to SARS-CoV-2 IgG (fold lower),SARS-CoV IgG; after 60 min,6 fold
same,sensor response,MERS IgGs,minimal sensor response
same,sensor response,HCoV-HKU1 IgGs,minimal sensor response
same,IgG concentration giving visible change in colour from red to purple,COVID19 anti-S1 IgG; Example 1: thiol-conjugated S14P5 with CALNN blocking,≥ 100 nM
same,linear range,"COVID19 anti-S1 IgG; Example 1: thiol-conjugated S14P5 with CALNN blocking, absorbance ratio",10 to 100 nM
same,LOD,"COVID19 anti-S1 IgG; Example 1: thiol-conjugated S14P5 with CALNN blocking, absorbance ratio, 15 min",~30 nM and 4.5 μg/ml
same,binding / nanoparticle aggregation,"COVID19 anti-S1 IgG; thiol-AuNP conjugation without spacer, COVID-19 anti-S1 IgG (100 nM)",unable to bind to anti COVID-19 IgGs
same,dose-dependent aggregation response (decrease in plasmon peak intensity),normal human IgG,absent
S14P5/S21P2-AuNPs: Streptavidin-coated gold nanoparticles functionalized with both biotinylated S14P5 and S21P2 epitopes (peptide 1 TESNKKFLPFQQFGRDIA; peptide 2 PSKPSKRSFIEDLLFNKV; also: biotinylated peptides on streptavidin-coated gold nanoparticle),recognition of anti-S1 and anti-S2 IgGs of SARS-CoV-2,[2]; 50 nM of anti-S1 IgG or anti-S2 IgG (FIG. 23),able to recognize both anti-S1 and anti-S2 IgGs
same,nanosensor response,[2]; 5-fold diluted human plasma,14.6%
same,nanosensor response,[2]; 10-fold diluted human plasma,22.8%
same,nanosensor response,[2]; pure PBS,78.2%
same,LOD,[2],3.2 nM
"S21P2-AuNPs: Streptavidin-coated gold nanoparticles functionalized with biotinylated S21P2 epitope (PSKPSKRSFIEDLLFNKV; also: biotinylated, bound to streptavidin-coated gold nanoparticles)",aggregation of peptide-coated AuNPs,COVID19 anti-S2 IgG,significant aggregation
same,limit of detection (LOD),[2],5.1 nM
same,sensor response,MERS IgGs,minimal sensor response
same,sensor response,HCoV-HKU1 IgGs,minimal sensor response
TESNKKFLPFQQFGRDIA [S14P5],"binding affinities (estimated Kd, order of magnitude)",[1],pM
same,apparent Kd,[1],low pM range
same,Kd,[1]; [3],< 1 nM
same,Kd,[1]; [4],111 ± 15 nM
same,limit of detection (LOD),[2],4.1 nM
same,response to COVID-19 IgGs,COVID19 anti-S1 IgG,resulted in nanoparticle aggregation
same,relative FP increase,SARS-CoV-2 IgG,highest relative FP increase
